Measurements reported in ChEMBL document CHEMBL6071181, “Discovery of ZLC491 as a Potent, Selective, and Orally Bioavailable CDK12/13 PROTAC Degrader” (J Med Chem, 2024).
Calls of active or inactive are those of the source. No cut-off for these calls is given here.

What was measured:
[1] = tested on: MDA-MB-231; assay: Downregulation of ATM protein level in human MDA-MB-231 cells at 0.1 to 0.5 uM incubated for 48 hrs by immunoblotting analysis; type: functional, cell-based; conditions: dose 0.1-0.5 µM
[2] = molecular target: T1, Protein cereblon/Cyclin-dependent kinase 12 (Homo sapiens) (UniProt Q9NYV4+Q96SW2); assay: PROTAC activity at CRBN/CDK12 in human MDA-MB-231 cells assessed as induction of CDK12 degradation incubated for 15 hrs by immunoblotting analysis; type: cell-based
[3] = Antiproliferative activity against human MCF-10A cells assessed as inhibition of cell growth incubated for 5 days by CCK8 assay; type: toxicity, cell-based
[4] = tested on: MDA-MB-231; assay: Induction of CCNK degradation in human MDA-MB-231 cells incubated for 15 hrs by immunoblotting analysis; type: cell-based; conditions: dose 0.01-3 µM
[5] = molecular target: T1, Protein cereblon/Cyclin-dependent kinase 12 (Homo sapiens); assay: PROTAC activity at CRBN/CDK12 in human MDA-MB-231 cells assessed as induction of CDK12 degradation at 2 uM incubated for 8 hrs by global proteomic analysis; type: cell-based
[6] = tested on: MDA-MB-231; assay: Downregulation of SMARCC mRNA expression in human MDA-MB-231 cells incubated for 12 hrs by RT-qPCR analysis; type: functional, cell-based; conditions: dose 60-300 nM
[7] = tested on: MDA-MB-231; assay: Antiproliferative activity against human MDA-MB-231 cells xenografted in female CB17SCID mouse model assessed as induction of tumor apoptosis at 200 mg/kg, po administered for 5 days by H and E staining based immunohistochemical analysis; type: functional, organism-based; conditions: time 5.0 day
[8] = molecular target: T2, Protein cereblon/Cyclin-dependent kinase 13 (Homo sapiens) (UniProt Q14004+Q96SW2); assay: PROTAC activity at CRBN/CDK13 in human HCC38 cells assessed as induction of CDK13 degradation incubated for 15 hrs by immunoblotting analysis; type: cell-based; conditions: dose 0.01-3 µM
[9] = tested on: MDA-MB-231; assay: Synergistic antiproliferative activity against human MDA-MB-231 cells assessed as combination index at 7.5 uM incubated for 5 days in presence of cisplatin by CCK8 assay; type: functional; conditions: time 5 day
[10] = molecular target: T1, Protein cereblon/Cyclin-dependent kinase 12 (Homo sapiens); assay: PROTAC activity at CRBN/CDK12 in human MDA-MB-231 cells assessed as induction of CDK12 degradation at 1 uM pretreated with bafilomycin followed by compound addition and measured after 10 hrs by immunoblotting analysis; type: cell-based
[11] = tested on: MDA-MB-231; assay: Synergistic antiproliferative activity against human MDA-MB-231 cells assessed as inhibition of cell growth at 0.3 to 7.5 uM incubated for 5 days in presence of olaparib by CCK8 assay; type: functional, cell-based; conditions: dose 0.3-7.5 µM, time 5.0 day
[12] = molecular target: T2, Protein cereblon/Cyclin-dependent kinase 13 (Homo sapiens); assay: PROTAC activity at CRBN/CDK13 in human MDA-MB-231 cells assessed as induction of CDK13 degradation at 1 uM pretreated with pomalidomide followed by compound addition and measured after 10 hrs by immunoblotting analysis; type: cell-based
[13] = Toxicity in female CB17SCID mouse model xenografted with human MDA-MB-231 cells assessed as body weight loss at 100 to 200 mg/kg, po administered for 5 days; type: organism-based; conditions: in vivo, 120 h, dose 100-200 mg/kg, time 5 day
[14] = molecular target: T2, Protein cereblon/Cyclin-dependent kinase 13 (Homo sapiens); assay: PROTAC activity at CRBN/CDK13 in human MDA-MB-231 cells assessed as induction of CDK13 degradation at 1 uM by immunoblotting analysis; type: cell-based; conditions: time <= 24.0 hrs, TDE = time-dependent effect
[15] = tested on: MDA-MB-231; assay: Antiproliferative activity against human MDA-MB-231 cells xenografted in female CB17SCID mouse model assessed as increase in TUNEL signaling in tumor at 200 mg/kg, po administered for 5 days by TUNEL staining based immunohistochemical analysis; type: functional, organism-based; conditions: time 5.0 day
[16] = tested on: MDA-MB-231; assay: Synergistic antiproliferative activity against human MDA-MB-231 cells assessed as inhibition of cell growth at 0.3 to 7.5 uM incubated for 5 days in presence of cisplatin by CCK8 assay; type: functional, cell-based; conditions: dose 0.3-7.5 µM, time 5.0 day

T1 sequence (Q96SW2 whole entry, looked up): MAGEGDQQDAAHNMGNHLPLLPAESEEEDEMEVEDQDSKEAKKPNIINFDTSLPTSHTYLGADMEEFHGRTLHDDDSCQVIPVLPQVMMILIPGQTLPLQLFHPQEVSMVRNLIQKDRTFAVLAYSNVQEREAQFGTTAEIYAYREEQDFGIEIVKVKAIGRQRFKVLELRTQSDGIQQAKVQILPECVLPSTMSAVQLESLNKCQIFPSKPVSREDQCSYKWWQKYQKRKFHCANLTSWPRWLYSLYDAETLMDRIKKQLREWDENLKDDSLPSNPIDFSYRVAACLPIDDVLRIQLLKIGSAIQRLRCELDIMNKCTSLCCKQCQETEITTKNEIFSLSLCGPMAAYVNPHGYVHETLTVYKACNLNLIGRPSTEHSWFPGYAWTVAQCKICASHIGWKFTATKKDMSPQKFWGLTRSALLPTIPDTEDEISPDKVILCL
T1 sequence (Q9NYV4 whole entry, looked up): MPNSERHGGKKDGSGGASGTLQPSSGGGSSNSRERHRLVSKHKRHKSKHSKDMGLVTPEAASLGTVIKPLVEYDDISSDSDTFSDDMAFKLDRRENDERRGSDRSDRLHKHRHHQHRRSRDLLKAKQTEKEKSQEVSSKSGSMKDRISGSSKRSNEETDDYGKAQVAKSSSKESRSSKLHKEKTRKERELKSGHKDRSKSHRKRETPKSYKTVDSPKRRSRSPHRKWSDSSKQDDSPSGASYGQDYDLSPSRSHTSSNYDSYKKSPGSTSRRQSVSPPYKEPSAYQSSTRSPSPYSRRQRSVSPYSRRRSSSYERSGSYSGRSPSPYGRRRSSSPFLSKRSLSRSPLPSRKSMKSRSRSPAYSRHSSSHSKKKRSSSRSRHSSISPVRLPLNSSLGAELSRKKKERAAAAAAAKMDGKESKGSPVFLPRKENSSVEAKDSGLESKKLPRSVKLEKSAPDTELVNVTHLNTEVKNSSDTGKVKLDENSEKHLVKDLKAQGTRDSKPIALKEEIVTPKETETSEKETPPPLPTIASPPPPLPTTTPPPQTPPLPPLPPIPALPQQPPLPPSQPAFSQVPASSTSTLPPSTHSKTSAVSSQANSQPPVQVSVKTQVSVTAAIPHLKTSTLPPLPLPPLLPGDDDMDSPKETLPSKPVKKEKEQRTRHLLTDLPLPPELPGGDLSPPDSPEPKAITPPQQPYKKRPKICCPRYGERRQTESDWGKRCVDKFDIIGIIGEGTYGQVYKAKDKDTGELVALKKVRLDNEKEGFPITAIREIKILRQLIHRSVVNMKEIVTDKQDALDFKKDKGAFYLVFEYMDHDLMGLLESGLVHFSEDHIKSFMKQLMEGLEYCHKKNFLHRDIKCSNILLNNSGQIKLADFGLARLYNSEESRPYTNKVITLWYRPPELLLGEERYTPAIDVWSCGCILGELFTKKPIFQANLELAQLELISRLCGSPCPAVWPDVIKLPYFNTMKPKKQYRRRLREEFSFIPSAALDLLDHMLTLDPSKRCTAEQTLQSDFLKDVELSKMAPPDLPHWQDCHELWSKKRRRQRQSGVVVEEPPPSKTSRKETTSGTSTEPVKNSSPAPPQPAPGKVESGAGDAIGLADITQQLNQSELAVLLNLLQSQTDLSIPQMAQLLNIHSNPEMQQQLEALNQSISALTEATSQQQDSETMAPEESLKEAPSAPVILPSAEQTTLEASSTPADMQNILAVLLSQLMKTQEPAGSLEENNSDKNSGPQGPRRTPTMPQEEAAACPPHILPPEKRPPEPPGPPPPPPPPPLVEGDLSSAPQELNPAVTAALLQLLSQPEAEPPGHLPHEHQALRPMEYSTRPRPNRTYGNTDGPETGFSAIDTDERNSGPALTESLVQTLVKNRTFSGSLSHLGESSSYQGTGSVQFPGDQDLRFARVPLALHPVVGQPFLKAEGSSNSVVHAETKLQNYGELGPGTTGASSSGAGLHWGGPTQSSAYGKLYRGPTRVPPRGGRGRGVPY
T2 sequence (Q14004 whole entry, looked up): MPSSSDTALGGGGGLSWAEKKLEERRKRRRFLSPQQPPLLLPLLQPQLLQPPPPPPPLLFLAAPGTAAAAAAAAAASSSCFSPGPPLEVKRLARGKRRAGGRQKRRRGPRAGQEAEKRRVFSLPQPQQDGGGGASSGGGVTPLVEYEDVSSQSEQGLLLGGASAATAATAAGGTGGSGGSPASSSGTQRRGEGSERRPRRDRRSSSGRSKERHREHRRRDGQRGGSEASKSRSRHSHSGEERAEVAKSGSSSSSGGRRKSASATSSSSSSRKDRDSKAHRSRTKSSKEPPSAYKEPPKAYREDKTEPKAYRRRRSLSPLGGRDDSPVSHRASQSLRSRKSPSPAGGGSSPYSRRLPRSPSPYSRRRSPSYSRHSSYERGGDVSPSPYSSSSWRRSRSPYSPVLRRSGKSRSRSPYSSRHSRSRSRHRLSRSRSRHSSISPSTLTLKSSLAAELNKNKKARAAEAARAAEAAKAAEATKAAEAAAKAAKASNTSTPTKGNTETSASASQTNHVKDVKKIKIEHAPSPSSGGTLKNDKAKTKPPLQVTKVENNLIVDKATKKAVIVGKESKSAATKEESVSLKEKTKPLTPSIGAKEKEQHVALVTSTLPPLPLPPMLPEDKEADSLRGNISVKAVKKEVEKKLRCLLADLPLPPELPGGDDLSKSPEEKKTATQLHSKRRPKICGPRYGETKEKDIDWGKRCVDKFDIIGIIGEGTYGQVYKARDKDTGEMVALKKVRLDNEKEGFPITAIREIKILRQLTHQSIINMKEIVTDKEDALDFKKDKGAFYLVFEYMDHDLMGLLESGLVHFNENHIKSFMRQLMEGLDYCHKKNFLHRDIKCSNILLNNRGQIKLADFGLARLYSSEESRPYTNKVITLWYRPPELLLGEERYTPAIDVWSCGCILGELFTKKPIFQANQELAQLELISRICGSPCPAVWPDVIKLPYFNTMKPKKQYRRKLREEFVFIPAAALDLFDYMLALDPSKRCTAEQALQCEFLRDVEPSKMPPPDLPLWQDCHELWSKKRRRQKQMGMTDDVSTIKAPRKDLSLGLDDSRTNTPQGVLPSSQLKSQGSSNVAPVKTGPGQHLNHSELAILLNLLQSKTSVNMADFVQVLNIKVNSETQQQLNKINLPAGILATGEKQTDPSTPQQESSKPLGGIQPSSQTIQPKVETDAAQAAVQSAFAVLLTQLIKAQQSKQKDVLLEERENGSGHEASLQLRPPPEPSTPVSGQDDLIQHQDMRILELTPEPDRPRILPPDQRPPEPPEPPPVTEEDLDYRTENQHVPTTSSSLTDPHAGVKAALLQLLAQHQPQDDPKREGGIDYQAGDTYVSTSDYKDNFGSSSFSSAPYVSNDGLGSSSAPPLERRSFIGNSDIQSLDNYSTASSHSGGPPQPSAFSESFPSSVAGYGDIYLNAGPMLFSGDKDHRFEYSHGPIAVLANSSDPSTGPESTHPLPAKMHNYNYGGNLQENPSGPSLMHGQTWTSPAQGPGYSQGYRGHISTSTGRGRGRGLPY
T2 sequence (Q96SW2 whole entry, looked up): as the sequence (Q96SW2 whole entry, looked up) above

## N#Cc1ccc(N[C@H]2CC[C@H](N(C(=O)NCc3ccccc3)c3ccc(N4CCN(C5CCN(c6cc7c(cc6F)C(=O)N(C6CCC(=O)NC6=O)C7=O)CC5)CC4)cc3)CC2)nc1 (stereo partly specified)
[1]
  Activity: Active
[2]
  Activity: Dose-Dependent Effect
[3]
  IC50 at 5 days: > 10 µM
[4]
  Activity: Dose-Dependent Effect
[5]
  Activity: Active
[6]
  Activity: Dose-Dependent Effect
[7]
  Activity: Active
[8]
  Activity: Dose-Dependent Effect
[9]
  CI: 0.07
[10]
  Activity: Active
[11]
  Activity: Active
[12]
  Activity: inactive
[13]
  Activity: Non-Toxic
[14]
  Activity: Tde
[15]
  Activity: Active
[16]
  Activity: Active
